Test system: 953936-095-R-J2-PDC spheroids with HUVEC/MSC, viability
Assay: Anticancer human tumor 953936-095-R-J2-PDC patient-derived cervical squamous cell carcinoma cell line growth inhibition [PI3K]
Conditions: for viability, T/C: stronger effect = lower value
Text: Combinatorial screen of targeted agents with the PI3K inhibitors inavolisib, alpelisib, duvelisib, and copanlisib in multi-cell type tumor spheroids
A high-throughput screen of multi-cell type tumor spheroids was designed to identify active combinations of targeted small molecules and PI3K pathway inhibitors. Complex spheroids include a stromal component modeled by human endothelial cells (HUVEC) and fibroblasts modeled by human mesenchymal stem cells (MSCs). The concentration ranges selected for each drug and investigational agent were based upon clinically achievable concentrations if the clinical Cmax of the agent was known.
Compounds. The drugs and investigational agents: inavolisib (NSC800729), alpelisib (NSC765974), duvelisib (NSC772469), copanlisib (NSC816437), ipatasertib (NSC767898), afuresertib (NSC778305), talazoparib (NSC767125), sapanisertib (NSC764658), selumetinib (NSC741078), tovorafenib (DAY101, NSC766906), vemurafenib (NSC761431), ravoxertinib (NSC781343), sotorasib (NSC818433), MRTX1133 (NSC 836407), abemaciclib (NSC 768073), palbociclib (NSC758247), venetoclax (NSC 766270), SY5609 (NSC837396), enzalutamide (NSC755605), and darolutamide (NSC825331), were obtained from the National Cancer Institute (NCI) Developmental Therapeutics Program Chemical Repository. The FDA-approved anticancer drug set is available from the NCI Developmental Therapeutics Program. […] The stock solutions were prepared in dimethyl sulfoxide (DMSO, Sigma-Aldrich, St. Louis, MO, cat. D2650) at 800-fold the tested concentration and stored at -70 degrees C prior to their use. All drugs and investigational agents were tested over a range starting from a high concentration at or near the clinical Cmax and decreasing in half-log increments. If the clinical Cmax for an agent had not been determined, the highest concentration tested was 10 microM.
Cell Culture. All cells were maintained in an incubator at 37 degrees C and 5% CO2 with 95% humidity. The PDC lines were cultured according to standard operating procedures established by the NCI PDMR (https://pdmr.cancer.gov/sops/default.htm). All PDCs were thawed and cultured in Matrigel-coated flasks prepared with a working solution of 1X Ham's F-12 nutrient mix, without supplementation (Invitrogen, Waltham, MA, cat. 11765054), 100 U/mL penicillin-streptomycin (Invitrogen, cat. 15140122), and 2.5% Matrigel (Corning Inc., Corning, NY, cat. 354248) for the first three passages. The 354836-022-R-J1-PDC, 475296-252-R-J1-PDC, and 997726-040-R-J2-PDC lines were cultured in 6A media, which includes advanced DMEM/F-12 (Thermo Fisher Scientific, cat. 12634028), 10 mM HEPES (Thermo Fisher Scientific, cat. 15630080), 1X GlutaMAX supplement (Thermo Fisher Scientific, cat. 35050061), 0.1 mg/mL primocin (InvivoGen, San Diego, CA, cat. ant-pm-2), 10% defined fetal bovine serum, heat inactivated (HyClone Laboratories Inc., Logan, UT, cat. SH30070.03HI), 50% L-WRN conditioned media (ATCC, cat. CRL-3276), 1.25 mM N-Acetyl-L-cysteine (Sigma-Aldrich, cat. A9165), 10 mM nicotinamide (Sigma-Aldrich, cat. N0636), 1X B-27 supplement (Thermo Fisher Scientific, cat. 17504044), 1X N-2 supplement (Thermo Fisher Scientific, cat. 17502048), and 10 microM Y-27632 dihydrochloride (Tocris Bioscience, Bristol, United Kingdom, cat. 1254). The 624824-186-R-J2-PDC line was cultured in 6C/Colon 1B media, which includes all 6A media components plus 50 ng/mL human EGF recombinant protein (Thermo Fisher Scientific, cat. PHG0311). […]

[1] = curve of first compound, second compound 0.0316 µM
[2] = curve of first compound, second compound 0.1 µM
[3] = curve of first compound, second compound 0.316 µM
[4] = curve of first compound, second compound 1 µM
[5] = curve of first compound, second compound 3.16 µM
[6] = curve of first compound, second compound 10 µM
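Further: spheroids exposed to compounds for seven days before read-out.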

CC1(C)CCC(Nc2ncc(C(F)(F)F)c(-c3c[nH]c4c(P(C)(C)=O)c(C#N)ccc34)n2)CN1 (stereo not given) + CC(Nc1ncnc2nc[nH]c12)c1cc2cccc(Cl)c2c(=O)n1-c1ccccc1
IC50 [1]: 3670 nM | IC50 [2]: 3370 nM | IC50 [3]: 3390 nM | IC50 [4]: 1780 nM | IC50 [5]: < 31.6 nM | IC50 [6]: < 31.6 nM | viability, T/C (second compound 0.0316 µM, first compound 0.0316 µM): 52.6% | viability, T/C (second compound 0.0316 µM, first compound 0.1 µM): 55.8% | viability, T/C (second compound 0.0316 µM, first compound 0.316 µM): 57.6% | viability, T/C (second compound 0.0316 µM, first compound 1 µM): 61.3% | viability, T/C (second compound 0.0316 µM, first compound 3.16 µM): 56.1% | viability, T/C (second compound 0.0316 µM, first compound 10 µM): 7.92% | viability, T/C (second compound 0.1 µM, first compound 0.0316 µM): 52.2% | viability, T/C (second compound 0.1 µM, first compound 0.1 µM): 53.5% | viability, T/C (second compound 0.1 µM, first compound 0.316 µM): 53.7% | viability, T/C (second compound 0.1 µM, first compound 1 µM): 62.5% | viability, T/C (second compound 0.1 µM, first compound 3.16 µM): 51.9% | viability, T/C (second compound 0.1 µM, first compound 10 µM): 6.89% | viability, T/C (second compound 0.316 µM, first compound 0.0316 µM): 60.1% | viability, T/C (second compound 0.316 µM, first compound 0.1 µM): 53.2% | viability, T/C (second compound 0.316 µM, first compound 0.316 µM): 44.6% | viability, T/C (second compound 0.316 µM, first compound 1 µM): 49.9% | viability, T/C (second compound 0.316 µM, first compound 3.16 µM): 56.3% | viability, T/C (second compound 0.316 µM, first compound 10 µM): 6.08% | viability, T/C (second compound 1 µM, first compound 0.0316 µM): 59.9% | viability, T/C (second compound 1 µM, first compound 0.1 µM): 49.7% | viability, T/C (second compound 1 µM, first compound 0.316 µM): 49.2% | viability, T/C (second compound 1 µM, first compound 1 µM): 46.3% | viability, T/C (second compound 1 µM, first compound 3.16 µM): 49.2% | viability, T/C (second compound 1 µM, first compound 10 µM): 5.38% | viability, T/C (second compound 3.16 µM, first compound 0.0316 µM): 45.9% | viability, T/C (second compound 3.16 µM, first compound 0.1 µM): 46.7% | viability, T/C (second compound 3.16 µM, first compound 0.316 µM): 49.3% | viability, T/C (second compound 3.16 µM, first compound 1 µM): 44.5% | viability, T/C (second compound 3.16 µM, first compound 3.16 µM): 45.7% | viability, T/C (second compound 3.16 µM, first compound 10 µM): 3.11% | viability, T/C (second compound 10 µM, first compound 0.0316 µM): 38% | viability, T/C (second compound 10 µM, first compound 0.1 µM): 36.5% | viability, T/C (second compound 10 µM, first compound 0.316 µM): 38.4% | viability, T/C (second compound 10 µM, first compound 1 µM): 39.6% | viability, T/C (second compound 10 µM, first compound 3.16 µM): 42.1% | viability, T/C (second compound 10 µM, first compound 10 µM): 1.76%

CC1(C)CCC(CN2CCN(c3ccc(C(=O)NS(=O)(=O)c4ccc(NCC5CCOCC5)c([N+](=O)[O-])c4)c(Oc4cnc5[nH]ccc5c4)c3)CC2)=C(c2ccc(Cl)cc2)C1
viability, T/C (compound 0.0316 µM): 96.8% [middle of 4 runs] | viability, T/C (compound 0.1 µM): 95.1% [middle of 4 runs] | viability, T/C (compound 0.316 µM): 92.7% [middle of 4 runs] | viability, T/C (compound 1 µM): 102% [middle of 4 runs] | viability, T/C (compound 10 µM): 32.5% [middle of 4 runs] | IC50 (curve of compound): 7.57 µM [middle of 4 runs]

Cn1cnc2c(F)c(Nc3ccc(Br)cc3Cl)c(C(=O)NOCCO)cc21 + CC(Nc1ncnc2nc[nH]c12)c1cc2cccc(Cl)c2c(=O)n1-c1ccccc1
IC50 [1]: 2090 nM | IC50 [2]: 956 nM | IC50 [3]: 1160 nM | IC50 [4]: 732 nM | IC50 [5]: 366 nM | IC50 [6]: < 9.49 nM | viability, T/C (second compound 0.0316 µM, first compound 0.00949 µM): 79.1% | viability, T/C (second compound 0.0316 µM, first compound 0.03 µM): 78.9% | viability, T/C (second compound 0.0316 µM, first compound 0.0949 µM): 69.7% | viability, T/C (second compound 0.0316 µM, first compound 0.3 µM): 67.6% | viability, T/C (second compound 0.0316 µM, first compound 0.949 µM): 57% | viability, T/C (second compound 0.0316 µM, first compound 3 µM): 46.6% | viability, T/C (second compound 0.1 µM, first compound 0.00949 µM): 90.2% | viability, T/C (second compound 0.1 µM, first compound 0.03 µM): 86.3% | viability, T/C (second compound 0.1 µM, first compound 0.0949 µM): 77.7% | viability, T/C (second compound 0.1 µM, first compound 0.3 µM): 57.6% | viability, T/C (second compound 0.1 µM, first compound 0.949 µM): 54.7% | viability, T/C (second compound 0.1 µM, first compound 3 µM): 39.5% | viability, T/C (second compound 0.316 µM, first compound 0.00949 µM): 90.2% | viability, T/C (second compound 0.316 µM, first compound 0.03 µM): 68.8% | viability, T/C (second compound 0.316 µM, first compound 0.0949 µM): 74.2% | viability, T/C (second compound 0.316 µM, first compound 0.3 µM): 68.2% | viability, T/C (second compound 0.316 µM, first compound 0.949 µM): 53.1% | viability, T/C (second compound 0.316 µM, first compound 3 µM): 36% | viability, T/C (second compound 1 µM, first compound 0.00949 µM): 85.5% | viability, T/C (second compound 1 µM, first compound 0.03 µM): 77.3% | viability, T/C (second compound 1 µM, first compound 0.0949 µM): 65% | viability, T/C (second compound 1 µM, first compound 0.3 µM): 58.8% | viability, T/C (second compound 1 µM, first compound 0.949 µM): 48.1% | viability, T/C (second compound 1 µM, first compound 3 µM): 38.6% | viability, T/C (second compound 3.16 µM, first compound 0.00949 µM): 76.4% | viability, T/C (second compound 3.16 µM, first compound 0.03 µM): 60.5% | viability, T/C (second compound 3.16 µM, first compound 0.0949 µM): 60.4% | viability, T/C (second compound 3.16 µM, first compound 0.3 µM): 54% | viability, T/C (second compound 3.16 µM, first compound 0.949 µM): 42.5% | viability, T/C (second compound 3.16 µM, first compound 3 µM): 33.4% | viability, T/C (second compound 10 µM, first compound 0.00949 µM): 47.5% | viability, T/C (second compound 10 µM, first compound 0.03 µM): 44.4% | viability, T/C (second compound 10 µM, first compound 0.0949 µM): 38.8% | viability, T/C (second compound 10 µM, first compound 0.3 µM): 30.5% | viability, T/C (second compound 10 µM, first compound 0.949 µM): 19.5% | viability, T/C (second compound 10 µM, first compound 3 µM): 14.8%

— PubChem BioAssay AID1963971 (Molecular Pharmacology Branch, DTP, NCI, 2024)
